Test results published in ChEMBL document CHEMBL3745607, “Optimization of allosteric MEK inhibitors. Part 2: Taming the sulfamide group balances compound distribution properties” (Bioorg Med Chem Lett, 2016).

How the values were obtained:
[1] = cells; settings: Homo sapiens, HCT-116
Description: Antiproliferative activity against human HCT116 cells harboring K-Ras G13D mutation

[2] = Ratio of AUC in brain to plasma in mouse at 5 mg/kg, iv measured for 0 to 3 hrs; format: ADME, organism-based; settings: brain and plasma, read-out: BPR
[3] = target: Carbonic anhydrase 1 (Homo sapiens, UniProt P00915); experiment: Inhibition of human carbonic anhydrase 1
Sequence of Carbonic anhydrase 1 (P00915 whole entry): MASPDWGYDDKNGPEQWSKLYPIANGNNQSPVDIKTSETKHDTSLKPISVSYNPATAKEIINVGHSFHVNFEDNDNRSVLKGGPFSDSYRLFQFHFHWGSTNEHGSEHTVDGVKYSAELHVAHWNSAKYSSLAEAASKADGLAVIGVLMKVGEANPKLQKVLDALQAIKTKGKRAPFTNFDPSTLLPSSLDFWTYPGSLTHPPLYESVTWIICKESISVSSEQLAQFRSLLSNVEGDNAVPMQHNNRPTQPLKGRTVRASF

[4] = tested on: A549; experiment: Antitumor activity against human A549 cells xenografted in mouse assessed as reduction in tumor area at 1 mg/kg, po qd relative to control; format: functional
[5] = tested on: A-375; experiment: Antiproliferative activity against human A375 cells harboring BRAF(V600E) mutation after 72 hrs by cell titer glow cell titer glow FCTGI assay; settings: A-375, 72 h
[6] = tested on: HepG2; experiment: cells; settings: Homo sapiens
Description: Antiproliferative activity against human HepG2 cells harboring N-Ras mutation

[7] = tested on: A549; experiment: cells; settings: Homo sapiens
Description: Antiproliferative activity against human A549 cells harboring K-Ras mutation

[8] = Blood clearance in rat at 0.5 mg/kg, iv or 1 mg/kg, po; format: ADME, organism-based
[9] = Half life in rat at 0.5 mg/kg, iv or 1 mg/kg, po; format: ADME, organism-based; settings: in vivo
[10] = tested on: MCF7; experiment: cells; settings: Homo sapiens
Description: Antiproliferative activity against human MCF7 cells

[11] = Volume of distribution at steady state in rat at 0.5 mg/kg, iv or 1 mg/kg, po; format: ADME, organism-based; settings: in vivo, read-out: Vdss
[12] = tested on: A549; experiment: Antitumor activity against human A549 cells xenografted in mouse assessed as reduction in tumor area at 2 mg/kg, po qd relative to control; format: functional
[13] = Oral bioavailability in rat 1 mg/kg; format: ADME, organism-based; settings: in vivo
[14] = cells; settings: Homo sapiens, COLO 205
Description: Antiproliferative activity against human COLO205 cells harboring BRAF mutation

[15] = target: Carbonic anhydrase 2 (Homo sapiens, UniProt P00918); experiment: Inhibition of human carbonic anhydrase 2
[16] = Half life in rat at 0.5 mg/kg, iv or 5 mg/kg, po; format: ADME, organism-based; settings: in vivo
[17] = Oral bioavailability in rat 5 mg/kg; format: ADME, organism-based; settings: in vivo

SMILES | IC50 [1] [nM] | IC50 [5] [nM] | also measured
NC(=O)c1c(Nc2ccc(I)cc2F)cc(F)cc1Oc1ccc(Cl)c(NS(N)(=O)=O)c1 | – | 483 | –
NC(=O)c1c(Nc2ccc(I)cc2F)cc(F)cc1Oc1ccccc1NS(N)(=O)=O | 2400 | 65 | –
NC(=O)c1c(Nc2ccc(I)cc2F)cc(F)cc1Oc1ccc2c(c1)N(S(N)(=O)=O)CCO2 | – | 339 | –
CCOc1ccc(Oc2cc(F)cc(Nc3ccc(I)cc3F)c2C(N)=O)cc1NS(N)(=O)=O | – | 977 | –
NC(=O)c1c(Nc2ccc(I)cc2F)cc(F)cc1Oc1cccc(NS(N)(=O)=O)c1Br | 152 | 8 | –
COc1cc(NS(N)(=O)=O)cc(Oc2cc(F)cc(Nc3ccc(I)cc3F)c2C(N)=O)c1 | – | 922 | –
CCNS(=O)(=O)Nc1cccc(Oc2cc(F)cc(Nc3ccc(I)cc3F)c2C(N)=O)c1 | 287 | < 30 | –
Cc1c(NS(N)(=O)=O)cccc1Oc1cc(F)cc(Nc2ccc(I)cc2F)c1C(N)=O | 9 | 2 | –
NC(=O)c1c(Nc2ccc(I)cc2F)cc(F)cc1Oc1cccc(NS(N)(=O)=O)c1Cl | 87 | 6 | –
Cc1ccc(NS(N)(=O)=O)cc1Oc1cc(F)cc(Nc2ccc(I)cc2F)c1C(N)=O | – | 570 | –
Cc1ccc(Oc2cc(F)cc(Nc3ccc(I)cc3F)c2C(N)=O)cc1NS(N)(=O)=O | – | 180 | –
COc1ccc(Oc2cc(F)cc(Nc3ccc(I)cc3F)c2C(N)=O)cc1NS(N)(=O)=O | – | 731 | –
Cn1cnc2c(F)c(Nc3ccc(Br)cc3Cl)c(C(=O)NOCCO)cc21 [SELUMETINIB] | 3000 | – | half-life [16]: 4.1 h; IC50 [10]: > 10000 nM; bioavailability [17]: 24%; IC50 [14]: 69 nM

More lines, main results first:

IC50 [1] [nM] | IC50 [5] [nM] | SMILES | also measured
180 | – | NC(=O)c1c(Nc2ccc(I)cc2F)cc(F)cc1Oc1cccc(NS(N)(=O)=O)c1 | Kp [2]: < 0.02; IC50 [3]: 4800 nM; T/C [4]: 0.15
3500 | – | NC(=O)c1c(Nc2ccc(I)cc2F)cc(F)cc1Oc1cccc(CS(N)(=O)=O)c1 | –
303 | 11 | NC(=O)c1c(Oc2cccc(CS(N)(=O)=O)c2)cc(F)c(F)c1Nc1ccc(I)cc1F | –
2950 | 32 | NC(=O)c1c(Oc2ccc(F)c(NS(N)(=O)=O)c2F)cc(F)c(F)c1Nc1ccc(I)cc1F | –
– | 138 | NC(=O)c1c(Nc2ccc(I)cc2F)cc(F)cc1Oc1cccc(F)c1NS(N)(=O)=O | –
81 | 4 | CCS(=O)(=O)Nc1cccc(Oc2c(F)c(F)cc(Nc3ccc(I)cc3F)c2C(N)=O)c1 | –
– | 374 | NC(=O)c1c(Nc2ccc(I)cc2F)cc(F)cc1Oc1ccc(F)c(NS(N)(=O)=O)c1F | –
277 | 13 | NC(=O)c1c(Oc2ccc(F)c(NS(N)(=O)=O)c2)cc(F)c(F)c1Nc1ccc(I)cc1F | IC50 [6]: 2 nM; IC50 [7]: 314 nM; Kp [2]: < 0.02; clearance [8]: 0.333 mL/min/kg; half-life [9]: 26 h; IC50 [10]: > 10000 nM; Vd [11]: 0.5 L/kg; T/C [12]: 0.21; bioavailability [13]: 84%; IC50 [14]: 42 nM
1800 | 88 | NCCS(=O)(=O)Nc1cccc(Oc2cc(F)cc(Nc3ccc(I)cc3F)c2C(N)=O)c1 | IC50 [15]: > 10000 nM
124 | 4 | NC(=O)c1c(Oc2cccc(CNS(N)(=O)=O)c2)cc(F)c(F)c1Nc1ccc(I)cc1F | IC50 [6]: 5 nM; IC50 [7]: 185 nM; Kp [2]: < 0.02; clearance [8]: 1.17 mL/min/kg; half-life [9]: 32 h; IC50 [10]: > 10000 nM; Vd [11]: 1.9 L/kg; bioavailability [13]: 78%; T/C [4]: 0.13; IC50 [14]: 9 nM
50 | 2 | NC(=O)c1c(Oc2cccc(NS(N)(=O)=O)c2)cc(F)c(F)c1Nc1ccc(I)cc1F | –
757 | 35 | NC(=O)c1c(Nc2ccc(I)cc2F)cc(F)cc1Oc1cccc(CNS(N)(=O)=O)c1 | –
2 | 0.2 | Cc1c(NS(N)(=O)=O)cccc1Oc1cc(F)c(F)c(Nc2ccc(I)cc2F)c1C(N)=O | –
65 | 2.4 | CCS(=O)(=O)Nc1cccc(Oc2cc(F)c(F)c(Nc3ccc(I)cc3F)c2C(N)=O)c1 | –
42 | 6 | CN(C)S(=O)(=O)Nc1cccc(Oc2cc(F)c(F)c(Nc3ccc(I)cc3F)c2C(N)=O)c1 | –
2510 | 90 | NC(=O)c1c(Nc2ccc(I)cc2F)cc(F)cc1Oc1ccc(F)c(NS(N)(=O)=O)c1 | –
731 | 24 | CC(NS(N)(=O)=O)c1cccc(Oc2cc(F)cc(Nc3ccc(I)cc3F)c2C(N)=O)c1 (configuration not stated) | –
– | 218 | Cc1cccc(Oc2cc(F)cc(Nc3ccc(I)cc3F)c2C(N)=O)c1NS(N)(=O)=O | –
